Source: patent US20230303503A1, “CELL ACTIVATABLE IRON CHELATORS” (BOARD OF REGENTS, THE UNIVERSITY OF TEXAS SYSTEM, priority 2020, published 2023)
“And” between values parts separate entries of the source, which are not always exact repeats. Equal values may be shown once. Read-outs that look alike come from different tables or passages of the source.

Legend:
[1] = tested on: Klebsiella pneumoniae (ATCC 13883); assay: Bacterial growth inhibition; assay type: cell-based
Procedure: (§1) Similarly, the bacterial inhibitory effect of the present ExJade derivatives was then evaluated. Initial tests were focused on two Gram-negative, ESKAPE bacteria (Mulani et al., 2019), Pseudomonas aeruginosa (ATCC 27853) and Klebsiella pneumoniae (ATCC 13883). Arbekacin, an FDA-approved aminoglycoside-based antibiotic, was used as positive control.

[2] = tested on: MRSA biofilms; assay: Live/dead biofilm viability assay on glass slides; assay type: cell-based, Staphylococcus aureus; settings: CFP-SUL 16 µg/mL alone or combined with chelator 64 µg/mL
Procedure: (§2) FIGS. 11A & 11B show biofilm experiments. (FIG. 11A) Evaluation of CFP-SUL (cefoperazone-sulbactam; 16 µg/mL), CFP-SUL@ExBT (16 µg/mL@64 µg/mL), CFP-SUL@deferasirox (16 µg/mL@64 µg/mL), and CFP-SUL@ExPhos (16 µg/mL@64 µg/mL) for the treatment of P. aeruginosa and MRSA biofilms. Processed 3D images of P. aeruginosa and MRSA biofilms on glass slides using the live/dead biofilm viability assay. Distributions of PI-stained (red, dead bacteria) and Syto9-stained (green, live bacteria) (FIG. 11B) P. aeruginosa and MRSA biovolumes and CFU counts (purple dots) for the above groups. Biovolume data are mean values of three independent replicates.
(§3) Biofilm experiments were carried out on glass slides with both Pseudomonas aeruginosa and MRSA. The therapeutic performance of the broad-spectrum antibiotic cefoperazonesulbactam (CFP-SUL) (Sheu et al., 2020) was evaluated on its own and in combination with deferasirox, ExBT, and ExPhos using the live/dead biofilm caption viability assay (propidium iodide (PI): dead, red; Syto9: live, green).

[3] = tested on: P. aeruginosa biofilms; assay: Live/dead biofilm viability assay on glass slides; assay type: cell-based, Pseudomonas aeruginosa; settings: CFP-SUL 16 µg/mL alone or combined with chelator 64 µg/mL
Procedure: as §2, §3

[4] = tested on: Pseudomonas aeruginosa (ATCC 27853); assay: Bacterial growth inhibition; assay type: cell-based
Procedure: as §1
(§4) This observation confirms the Fe(III) chelation dependent inhibitory activity. Due to the Fe(III) chelation dependent nature of the ExJade derivatives and to illustrate their potential “real life” utility, the inhibitory activity of ExBT and ExPhos against MRSA were evaluated in a blood containing medium consisting of agar and defibrillated amniotic blood (Filipowicz et al., 2003).

[5] = Behaviour in aqueous media (solubility, aggregation, DLS); assay type: physicochemical; settings: water; neutral pH for ExJade
Procedure: Several new ExJade derivatives, designed to control solubility and modulate the intrinsic electronic features, namely ExPh, ExPh-OMe, ExH, ExBT, ExBT-OMe and ExPhos, were prepared. […] In marked contrast to what is seen in aqueous environments, solutions of ExPh and ExBT in most common organic solvents display no appreciable emission.
No significant fluorescence quenching was seen upon changing the solvents in which ExPh-OMe and ExBT-OMe were analyzed - DMSO, PhMe, THF, DCM, acetone, MeCN, MeOH and PBS. […] This putative ICT phenomenon has been observed in structurally similar N-phenylpyrrole analogues (Yoshihara et al., 2005; Yoshihara et al., 2003). Further support for the proposed aqueous induced aggregation mechanism invoked in the case of ExPh and […] came from studies of the parent system, ExJade.

[6] = tested on: methicillin-resistant Staphylococcus aureus (MRSA, ATCC 43300); assay: Inhibition of drug-resistant bacteria (colonies, cell viability); assay type: cell-based; settings: agar and defibrillated amniotic blood
Procedure: Cell viability of (FIG. 4B) MRSA (ATCC 43300) and (FIG. 4C) VRE (ATCC 51299) before and after treatment with ExBT, ExJade, ExPhos, and arbekacin (15 µM).
More importantly, two clinically relevant gram-positive, drug-resistant bacteria, methicillin-resistant Staphylococcus aureus (MRSA, ATCC 43300) and vancomycin-resistant Enterococcus faecalis (VRE, ATCC 51299) with high ALP activity were then used to evaluate further the therapeutic potential of these ExJade derivatives. Again, arbekacin was used as a positive control. […] The observed inhibition of VRE is of particular significance since there are few clinically available treatments for this multidrug-resistant bacterium.
as §4

[7] = tested on: A549 human lung cancer cell line; assay: MTT cell viability / antiproliferative assay in A549 cells; assay type: cell-based; settings: for IC50: A549, MTT, triplicate
Procedure: Cell culture. A549 cells (ATCC® CCL-185™) were maintained in growth medium consisting of RPMI 1640 Medium (Sigma-Aldrich, MO, USA) supplemented with 10% fetal bovine serum (Sigma-Aldrich, MO, USA) and 2% Penicillin/Streptomycin (Sigma-Aldrich, MO, USA). Cells were kept in a humidified atmosphere of 5% CO2 and 95% air at 37° C. and were split when they reached 90% confluency.
Cell viability assay. 1500 cells per well were plated on a 96-well plate (12 rows × 8 wells per row) in 100 µL growth medium and kept at 37° C. under 5% CO2. 24 h after seeding, cells were treated with another 100 µL growth medium containing different concentrations of the drug under evaluation. Cells in each row of the 96-well plate were treated with the same concentration of drug and the first two rows were kept as control and treated with growth medium alone. The highest drug concentration evaluated was 250 µM and lower concentrations were produced via serial dilution by a factor of 3. Treated cells were kept at 37° C. under 5% CO2 for 72 h. Then, 50 µL RPMI 1640 Medium without fetal bovine serum and penicillin/streptomycin containing 3 mg/mL 3-(4,5-dimethylthiazol-2-yl)-2,5-diphenyltetrazolium bromide (Sigma-Aldrich, MO, USA) was added to each well and cells were kept at 37° C. under 5% CO2 for another 4 h. Subsequently, the medium was removed, and the precipitated formazan dye taken up in DMSO (50 µL). The absorbance of the solutions was measured at 540 nm with an M5 microplate reader (Molecular Devices, USA) and 0.33 absorbance units were subtracted from all wells (this absorbance value corresponds to wells containing DMSO without dye - control). The absorbance of each row of wells were averaged and were directly proportional to the number of viable cells after drug treatment.
The antiproliferative activity of compounds 1-10 was evaluated in A549 lung cancer cells, a cell line with a well- established sensitivity to iron imbalance (Loza-Rosas et al., 2017; Ohara et al., 2013). For each compound, cellular proliferation profiles were produced via a standard MTT (3-(4,5-dimethylthiazol-2-yl)-2,5-diphenyltetrazolium bromide) assay for exposure times of 72 h and 24 h, respectively. From these proliferation profiles, averaged IC50 values and Hill slope (HS) parameters were determined via linear regression analysis.

[8] = tested on: alkaline phosphatase (ALP); assay: Alkaline phosphatase response of the pro-chelator (fluorescence); assay type: biochemical; settings: 15 µM, ALP 0-64 U
Text: This ratiometric change in fluorescence emission was ascribed to the gradual and stepwise dephosphorylation of ExPhos, which was confirmed by LC-MS analysis. ExPhos solutions exposed to ALP (64 U ALP) were subsequently treated with increasing concentrations of Fe(III) (as the FeCl3 salt). […] Based on these findings, we considered it likely that ExPhos could serve as an ALP-responsive Fe(III) pro-chelator.
Recently, protected versions of known metal chelators (“prochelators”) have been explored in an effort to avoid premature metal chelation (Wang et al., 2016). The bis-phosphate ester ExPhos was thus prepared as a phosphatase-responsive fluorescent pro-chelator that would permit detection of a disease-based biomarker (i.e., alkaline phosphatase, ALP) (Zhang et al., 2020; McCullough and Barrios, 2020; Haarhaus et al., 2017; Gwynne et al., 2019). […] Timedependent changes in fluorescence emission intensity were also seen. The limit of detection (LoD) was calculated to be 0.016 75 U (measurements performed after 5 min of incubation). The ratiometric change in the fluorescence emission was ascribed to the gradual and stepwise (bis-phosphate ester to monophosphate ester to bisphenol) dephosphorylation of ExPhos (as confirmed by LCMS analyses). This sequential conversion leads to a rapid decrease in the blue emission and a slow increase in the green emission. […]

[9] = 24 h incubation, read-out: IC50 (24 h)
[10] = 72 h incubation, read-out: IC50 (72 h)

IC50 [7, 9] [µM]	IC50 [7, 10]	Structure (SMILES)	inhibition of bacterial growth [1]	inhibition of bacterial growth [4]	solubility in aqueous media [5]	further results
–	–	Oc1ccccc1-c1nc(-c2ccccc2O)n(-c2ccc(-c3nc4ccccc4s3)cc2)n1 [ExBT]	capable of inhibiting the growth	capable of inhibiting the growth	insoluble aggregates	antibiofilm effect [2]: enhanced; antibiofilm effect [3]: enhanced; inhibitory activity in blood containing medium [6]: remaining strong
–	–	O=C(O)c1ccc(-n2nc(-c3ccccc3O)nc2-c2ccccc2O)cc1 [Compound 1, deferasirox, reference compound]	–	–	good solubility	cytotoxicity when cells were supplemented with FeCl3 ([7]; A549, 50 µM FeCl3, 72 h of exposure): no longer produced any observable cytotoxicity; IC50 ([7]; Homo sapiens, 24 h incubation, read-out: IC50 (24 h)): > 50 µM; IC50 ([7]; Homo sapiens, 72 h incubation, read-out: IC50 (72 h)): 8.5 µM
> 50	2.6 µM and 3.6 µM	O=C(c1ccc(-n2nc(-c3ccccc3O)nc2-c2ccccc2O)cc1)N1CCOCC1 [Compound 4]	–	–	–	–
–	–	Oc1ccccc1-c1nc(-c2ccccc2O)n(-c2ccccc2)n1 [ExPh]	capable of inhibiting the growth	capable of inhibiting the growth	insoluble aggregates	–
21 ± 3	1.6 µM and 2.5 µM	COC(=O)c1ccc(-n2nc(-c3ccccc3O)nc2-c2ccccc2O)cc1 [Compound 2]	–	–	–	–
–	–	O=P(O)(O)Oc1ccccc1-c1nc(-c2ccccc2OP(=O)(O)O)n(-c2ccc(-c3nc4ccccc4s3)cc2)n1 [ExPhos]	capable of inhibiting the growth	capable of inhibiting the growth	–	antibiofilm effect [2]: enhanced; change in fluorescence emission in the presence of ALP [8]: dose dependent change; antibiofilm effect [3]: enhanced; cytotoxicity towards A549 cells ([7]; pro-chelator, in words): no significant cytotoxicity; inhibitory activity in blood containing medium [6]: remaining strong

Structure (SMILES)	IC50 [7, 9] [µM]	IC50 [7, 10]	inhibition of bacterial growth [1]	inhibition of bacterial growth [4]	solubility in aqueous media [5]	further results
O=C1[O][Pt]2([NH][C@@H]3CCCC[C@H]3[NH]2)[O]C1=O [Ox-Pt, oxaliplatin, reference compound]	> 50	0.5 ± 0.1 µM	–	–	–	–
